Results reported in article PMC6165432 (International Journal of Molecular Sciences, 2018).
Where two headings read alike, the source gives them in different places. Blank lines part the entries; values can stand above or below the molecule they belong to.

Key:
mouse AhR (mAhR) = biological target: T1, mouse AhR (mAhR) (Mus musculus, UniProt P30561); experiment: AhR-responsive luciferase reporter gene assay in stably transfected mouse H1L6.1c3 hepatoma cells; assay type: cell-based
T1 sequence (P30561 10-805): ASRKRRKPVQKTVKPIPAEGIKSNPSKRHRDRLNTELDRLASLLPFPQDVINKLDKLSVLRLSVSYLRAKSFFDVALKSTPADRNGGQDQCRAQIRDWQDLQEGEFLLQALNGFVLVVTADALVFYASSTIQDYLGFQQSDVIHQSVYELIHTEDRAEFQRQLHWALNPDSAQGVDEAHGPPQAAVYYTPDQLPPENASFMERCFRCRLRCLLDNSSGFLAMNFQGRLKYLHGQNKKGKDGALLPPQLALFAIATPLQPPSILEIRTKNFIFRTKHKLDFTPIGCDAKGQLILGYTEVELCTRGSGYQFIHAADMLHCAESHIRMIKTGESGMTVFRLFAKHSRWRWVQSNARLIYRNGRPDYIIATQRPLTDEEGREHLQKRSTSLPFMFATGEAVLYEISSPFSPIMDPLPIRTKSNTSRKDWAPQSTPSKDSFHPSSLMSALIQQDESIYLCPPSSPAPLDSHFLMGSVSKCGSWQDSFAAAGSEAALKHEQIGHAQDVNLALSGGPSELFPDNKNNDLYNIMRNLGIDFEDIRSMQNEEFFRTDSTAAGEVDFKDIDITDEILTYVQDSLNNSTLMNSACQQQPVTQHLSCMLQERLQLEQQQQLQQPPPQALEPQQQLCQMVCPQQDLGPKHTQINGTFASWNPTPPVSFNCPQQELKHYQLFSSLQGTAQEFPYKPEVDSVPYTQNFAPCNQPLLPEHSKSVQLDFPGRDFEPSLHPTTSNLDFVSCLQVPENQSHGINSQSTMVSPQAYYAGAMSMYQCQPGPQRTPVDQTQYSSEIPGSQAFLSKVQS
Experimental: (§1) AhR-dependent gene transcription was determined in (A) human HG2L6.1c.1 and (B) mouse H1L6.1c.3 hepatoma cell lines that contain a stably transfected AhR-responsive luciferase reporter gene. […] Luciferase activity (Relative Light Units (RLUs)) was normalized to the maximal induction observed with TCDD in each cell line. Values represent the mean ± SD of nine independent analyses.
(§2) Recombinant mouse (H1L6.1c3) and human (HG2L6.1c1) hepatoma cells containing a stably integrated AhR-responsive luciferase reporter gene plasmid (pGudLuc6.1) were plated (750,000 cells/well) in 96-well plates and incubated at 37 °C for 24 h prior to chemical treatment. Cells were incubated with DMSO (1% (v/v)) or the indicated concentration of test chemical in DMSO for 4 h, followed by visual inspection of the cells for toxicity, washing of the cells with phosphate-buffered saline (PBS), addition of 50 µL of passive lysis buffer (Promega) and lysis of cells for 20 min at room temperature with shaking [50]. Luciferase activity in each well was measured (integrating luminescence over 10 s with a 10 s delay) in an Orion microplate luminometer (Berthold Detection Systems, Bad Wildbad, Germany) following automatic injection of Promega stabilized luciferase reagent.
(§3) Analysis of statistical significance of differences between experimental values was conducted using Two-Way ANOVA and EC50s and IC50s were calculated using nonlinear regression (three parameter) analysis in GraphPad Prism v.7 (La Jolla, CA, USA).

human AhR (hAhR) = biological target: T2, human AhR (hAhR) (Homo sapiens, UniProt P35869); experiment: AhR-responsive luciferase reporter gene assay in stably transfected human HG2L6.1c1 hepatoma cells; settings: for maximal level of reporter gene induction: relative to TCDD
T2 sequence (P35869 11-848): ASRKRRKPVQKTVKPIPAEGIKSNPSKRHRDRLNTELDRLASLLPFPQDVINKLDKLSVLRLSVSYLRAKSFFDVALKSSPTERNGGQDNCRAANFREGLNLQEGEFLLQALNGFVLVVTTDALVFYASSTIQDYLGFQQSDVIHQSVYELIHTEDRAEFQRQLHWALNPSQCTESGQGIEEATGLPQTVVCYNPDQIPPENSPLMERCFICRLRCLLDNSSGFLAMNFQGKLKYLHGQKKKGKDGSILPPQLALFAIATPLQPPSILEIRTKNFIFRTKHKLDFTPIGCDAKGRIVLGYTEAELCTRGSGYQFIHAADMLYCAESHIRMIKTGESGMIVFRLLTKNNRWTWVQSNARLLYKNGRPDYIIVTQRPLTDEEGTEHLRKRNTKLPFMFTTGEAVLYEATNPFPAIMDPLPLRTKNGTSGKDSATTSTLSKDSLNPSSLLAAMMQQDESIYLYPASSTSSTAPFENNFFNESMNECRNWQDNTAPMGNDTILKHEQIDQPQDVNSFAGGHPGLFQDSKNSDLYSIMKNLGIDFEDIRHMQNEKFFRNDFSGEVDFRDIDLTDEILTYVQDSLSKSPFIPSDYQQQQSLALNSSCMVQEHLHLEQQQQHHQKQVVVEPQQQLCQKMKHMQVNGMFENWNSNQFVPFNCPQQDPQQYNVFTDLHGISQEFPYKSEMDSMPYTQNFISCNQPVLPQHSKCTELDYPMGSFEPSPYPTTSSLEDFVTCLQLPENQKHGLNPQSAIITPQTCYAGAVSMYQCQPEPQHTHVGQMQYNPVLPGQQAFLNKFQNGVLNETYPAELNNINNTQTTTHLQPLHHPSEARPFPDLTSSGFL
Experimental: as §1, §2, §3

mutant A349T mAhR = test system: T3, mutant A349T mAhR; experiment: Transient transfection luciferase reporter assay in COS-1 cells, A349T mAhR; assay type: cell-based, mouse; settings: COS-1 cells cotransfected with A349T mAhR; TCDD 10 nM, IR 1 µM, 18–20 h
T3 construct: contains a full-length mAhR cDNA in which the mouse PASB LBD was replaced; expressed in transfected cells; host or cells: COS-1
Experimental: (§4) Cells were lysed, and lysates were analyzed for firefly luciferase activity. […] Luciferase activity (relative light units; RLU) was measured and corrected for background (DMSO) and normalized to mAhR TCDD levels. Values represent the mean ± SD of nine individual replicate analyses.
(§5) COS-1 cells were plated at a density of 75,000 cells/well and allowed to attach overnight in a 24-well plate. Cells were transiently transfected (per well) with the following amounts per well: 2 µL Lipofectamine 2000 (Invitrogen, Carlsbad, CA, USA), 20 ng wild-type (mβAhR/pcDNA3) or mutant AhR expression plasmids (in pcDNA3.1), 20 ng of mβARNT/pcDNA3 or pcDNA3.1(+) and 200 ng pGudLuc6.1 [17].

hAhR = hAhR (Homo sapiens, UniProt P35869); settings: COS-1 cells cotransfected with hAhR; TCDD 10 nM, IR 1 µM, 18–20 h
Experimental: as §4, §5

mAhR-hAhRLBD = mAhR-hAhRLBD (Mus musculus; Homo sapiens, UniProt P30561+P35869); settings: COS-1 cells cotransfected with mAhR-hAhRLBD; TCDD 10 nM, IR 1 µM, 18–20 h
Experimental: as §4, §5

AhR [1] = settings: human hepatoma cells ref 23; cited from earlier work
AhR [2] = settings: mouse hepatoma cells ref 23; cited from earlier work
[3] = mouse H1L6.1c3 hepatoma cells, 4 h, mean ± SD of nine analyses, read-out: EC50 to stimulate luciferase reporter gene expression, Mouse

mAhR-hAhRLBD, sequence (P30561 with tags, fused parts or gaps, one chain of several): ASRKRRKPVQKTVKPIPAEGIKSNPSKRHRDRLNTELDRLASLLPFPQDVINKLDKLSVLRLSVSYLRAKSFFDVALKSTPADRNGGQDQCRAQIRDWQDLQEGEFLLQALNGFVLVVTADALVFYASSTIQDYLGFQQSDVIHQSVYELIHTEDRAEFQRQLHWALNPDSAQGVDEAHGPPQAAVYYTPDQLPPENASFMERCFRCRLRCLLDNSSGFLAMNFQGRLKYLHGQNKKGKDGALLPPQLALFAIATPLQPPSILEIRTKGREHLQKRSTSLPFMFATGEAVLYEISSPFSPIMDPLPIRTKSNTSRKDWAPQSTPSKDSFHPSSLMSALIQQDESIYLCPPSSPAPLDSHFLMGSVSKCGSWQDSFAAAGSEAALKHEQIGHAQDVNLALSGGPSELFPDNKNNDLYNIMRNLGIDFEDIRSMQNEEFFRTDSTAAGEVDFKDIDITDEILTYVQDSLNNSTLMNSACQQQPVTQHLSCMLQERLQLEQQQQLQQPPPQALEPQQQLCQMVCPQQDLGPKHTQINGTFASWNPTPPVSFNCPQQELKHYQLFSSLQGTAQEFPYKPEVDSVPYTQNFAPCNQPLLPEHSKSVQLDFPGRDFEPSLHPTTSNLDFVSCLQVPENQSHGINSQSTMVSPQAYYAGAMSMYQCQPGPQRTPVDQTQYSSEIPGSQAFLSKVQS
mAhR-hAhRLBD, sequence (P53762 2-791 partner, one chain of several): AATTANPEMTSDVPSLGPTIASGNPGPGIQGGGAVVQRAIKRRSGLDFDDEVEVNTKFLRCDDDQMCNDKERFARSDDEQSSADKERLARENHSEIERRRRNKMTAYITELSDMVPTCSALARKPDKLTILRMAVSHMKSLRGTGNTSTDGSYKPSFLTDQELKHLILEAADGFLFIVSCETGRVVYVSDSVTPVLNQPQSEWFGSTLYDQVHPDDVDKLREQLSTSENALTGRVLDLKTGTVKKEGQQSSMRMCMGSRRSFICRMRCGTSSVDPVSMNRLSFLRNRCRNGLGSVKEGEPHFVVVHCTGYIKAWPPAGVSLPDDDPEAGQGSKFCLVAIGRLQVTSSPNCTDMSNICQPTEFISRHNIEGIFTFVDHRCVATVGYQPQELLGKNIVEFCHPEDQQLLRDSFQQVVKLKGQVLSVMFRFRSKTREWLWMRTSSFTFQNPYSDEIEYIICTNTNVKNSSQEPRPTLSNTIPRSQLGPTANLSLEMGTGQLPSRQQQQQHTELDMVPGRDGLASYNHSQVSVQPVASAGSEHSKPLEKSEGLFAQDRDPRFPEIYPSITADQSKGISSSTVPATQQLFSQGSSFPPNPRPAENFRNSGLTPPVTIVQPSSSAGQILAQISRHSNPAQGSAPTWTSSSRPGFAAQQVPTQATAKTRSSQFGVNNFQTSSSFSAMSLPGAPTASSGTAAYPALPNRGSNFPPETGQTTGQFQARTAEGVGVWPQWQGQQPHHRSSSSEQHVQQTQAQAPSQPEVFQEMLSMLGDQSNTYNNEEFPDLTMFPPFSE

Structure (SMILES): Cc1ccc2cc3c(ccc4ccccc43)c3c2c1CC3 [3-MC, 3-Methylcholanthrene]
- EC50 (mouse AhR (mAhR); [3]): 1.49 ± 0.01 nM
- EC50 (human AhR (hAhR)): 14.6 ± 3.51 nM
- maximal level of reporter gene induction (human AhR (hAhR); human HG2L6.1c1 cells): maximal induction was not observed

Structure (SMILES): O=c1cc(-c2ccccc2)oc2ccc3ccccc3c12 [BNF, β-naphthoflavone]
- EC50 (mouse AhR (mAhR); [3]): 1.84 ± 1.14 nM
- maximal level of reporter gene induction (human AhR (hAhR); human HG2L6.1c1 cells): maximal induction was not observed

- EC50 (mouse AhR (mAhR); [3]): 3.71 ± 0.85 nM
Structure (SMILES): O=Cc1c2[nH]c3ccccc3c2cc2[nH]c3ccccc3c12 [FICZ, 6-formylindolo[3,2-b]carbazole]

Structure (SMILES): O=C1Nc2ccccc2/C1=C1/Nc2ccccc2C1=O [IR, indirubin]
- EC50 (mouse AhR (mAhR); mouse): 15.6 ± 3.52 nM
- induction of luciferase activity, IR versus TCDD (mutant A349T mAhR): significantly more efficacious inducer than TCDD
- maximal induction compared with wild-type mAhR (mutant A349T mAhR): significantly increased above that of wild-type mAhR
- induction of luciferase activity, IR versus TCDD (hAhR): significantly more efficacious inducer than TCDD
- induction of luciferase activity, IR versus TCDD (mAhR-hAhRLBD): significantly more efficacious inducer than TCDD
- greater potency than TCDD as inducer of AhR-dependent gene expression (AhR [1]): 10 fold
- less potent than TCDD as inducer of AhR-dependent gene expression (AhR [2]): ~ 10 fold
- more potent than TCDD, reporter gene induction (human AhR (hAhR); human HG2L6.1c1 cells): ~ 7 fold
